Reference: publication PMC8286840, “Identifying SARS-CoV-2 antiviral compounds by screening for small molecule inhibitors of Nsp3 papain-like protease” (Biochemical Journal, 2021)
Counter-ions that a name gives are not always drawn. Like-named read-outs stand apart in the source and are kept apart here. Where a SMILES comes first, the peptide text is derived from it. Bridges are numbered along the chain shown (N, C = ends).

Tests used:
[1] = target: T1, SARS-CoV-2 PLpro (nsp3 1564–1878) (Severe acute respiratory syndrome coronavirus 2, UniProt P0DTD1); test: biochemical; set-up: FRET-quenched peptide (Pro3) cleavage by PLpro, 10 min pre-incubation, slope over 20 min, normalised to no-compound control; conditions: low concentration screen, read-out: % of control remaining
[2] = target: T1, SARS-CoV-2 PLpro (nsp3 1564–1878); test: biochemical; set-up: FRET-quenched peptide (Pro3) cleavage by PLpro, 10 min pre-incubation, slope over 20 min, normalised to no-compound control; conditions: high concentration screen, read-out: % of control remaining

Structure (SMILES): CN1c2cc3c(cc2N=C(c2ccc(C(=O)O)cc2)c2ccccc21)C(C)(C)CCC3(C)C [4-(5,7,7,10,10-pentamethyl-7,8,9,10-tetrahydro-5H-naphtho[2,3-b][1,4]benzodiazepin-13-yl)benzoic acid]
- remaining activity at 1.25 µM ([1]; Well no.=5556): 104%
- remaining activity at 3.75 µM ([2]; Well no.=5556): 100%

Structure (SMILES): O=C(c1ccc(OCCCc2c[nH]cn2)cc1)C1CC1 [Ciproxifan (maleate)]
- remaining activity at 1.25 µM ([1]; Well no.=7089): 103%
- remaining activity at 3.75 µM ([2]; Well no.=7089): 105%

Structure (SMILES): CCCCC[C@H](O)/C=C/[C@H]1[C@H](O)CC(=O)[C@@H]1C/C=C\CCCC(=O)O [Prostaglandin E2]
- remaining activity at 1.25 µM ([1]; Well no.=1625): 100%
- remaining activity at 1.25 µM ([1]; Well no.=3092): 98.6%
- remaining activity at 1.25 µM ([1]; Well no.=4477): 99.7%
- remaining activity at 1.25 µM ([1]; Well no.=6151): 106%
- remaining activity at 1.25 µM ([1]; Well no.=8105): 94.3%
- remaining activity at 3.75 µM ([2]; Well no.=1625): 103%
- remaining activity at 3.75 µM ([2]; Well no.=3092): 101%
- remaining activity at 3.75 µM ([2]; Well no.=6151): 110%
- remaining activity at 3.75 µM ([2]; Well no.=8105): 95.4%

Structure (SMILES): COc1ccc(COc2cc3oc(=O)c4cc(C(C)O)ccc4c3cc2OC)cc1 (stereo not drawn) [Palomid 529]
- remaining activity at 1.25 µM ([1]; Well no.=4860): 102%
- remaining activity at 3.75 µM ([2]; Well no.=4860): 98.2%

Structure (SMILES): COc1cc2c(cc1O)CC[C@@H]1[C@@H]2CC[C@]2(C)[C@@H](O)CC[C@@H]12 [2-Methoxyestradiol]
- remaining activity at 1.25 µM ([1]; Well no.=836): 105%
- remaining activity at 1.25 µM ([1]; Well no.=6292): 95.9%
- remaining activity at 3.75 µM ([2]; Well no.=836): 102%
- remaining activity at 3.75 µM ([2]; Well no.=6292): 93.3%

Structure (SMILES): O=c1cc[nH]c(=S)[nH]1 [2-Thiouracil]
- remaining activity at 1.25 µM ([1]; Well no.=5325): 90.5%
- remaining activity at 3.75 µM ([2]; Well no.=5325): 90.8%

Structure (SMILES): CCc1nn(CCCN2CCN(c3cccc(Cl)c3)CC2)c(=O)n1CCOc1ccccc1 [2-{3-[4-(3-chlorophenyl)-1-piperazinyl]propyl}-5-ethyl-4-(2-phenoxyethyl)-2,4-dihydro-3H-1,2,4-triazol-3-one hydrochloride]
- remaining activity at 1.25 µM ([1]; Well no.=5691): 99.4%
- remaining activity at 3.75 µM ([2]; Well no.=5691): 96.7%

Structure (SMILES): O=S(=O)(NC1CCCCC1)c1ccc2c(c1)C(=NO)c1cc(S(=O)(=O)NC3CCCCC3)ccc1-2 [FIN56]
- remaining activity at 1.25 µM ([1]; Well no.=6740): 99.6%
- remaining activity at 1.25 µM ([1]; Well no.=8726): 93.4%
- remaining activity at 3.75 µM ([2]; Well no.=6740): 97.8%
- remaining activity at 3.75 µM ([2]; Well no.=8726): 94.6%

Structure (SMILES): CN(C)CC(=O)Nc1ccc2[nH]c(=O)c3ccccc3c2c1 [PJ-34]
- remaining activity at 1.25 µM ([1]; Well no.=906): 99.3%
- remaining activity at 3.75 µM ([2]; Well no.=906): 95.6%

Structure (SMILES): O=C(O)c1ccc2c3c1cccc3c(=O)n1c3ccccc3nc21 [STO-609]
- remaining activity at 1.25 µM ([1]; Well no.=2658): 90%
- remaining activity at 3.75 µM ([2]; Well no.=2658): 89.5%

Structure (SMILES): COc1cc(CC(=O)O)ccc1O [Homovanillic acid]
- remaining activity at 1.25 µM ([1]; Well no.=6831): 96.9%
- remaining activity at 3.75 µM ([2]; Well no.=6831): 97%

Structure (SMILES): NCCc1ccc(O)cc1 [4-Hydroxyphenethylamine hydrochloride]
- remaining activity at 1.25 µM ([1]; Well no.=1237): 101%
- remaining activity at 3.75 µM ([2]; Well no.=1237): 102%

Structure (SMILES): CCCN1CCC[C@@H]2Cc3[nH]ncc3C[C@H]21 [(-)-Quinpirole hydrochloride]
- remaining activity at 1.25 µM ([1]; Well no.=1269): 96.5%
- remaining activity at 3.75 µM ([2]; Well no.=1269): 99.7%

Structure (SMILES): CCN(CC)C(=O)[C@]1(c2ccccc2)C[C@@H]1CN (racemic) [Milnacipran HCl]
- remaining activity at 1.25 µM ([1]; Well no.=4977): 102%
- remaining activity at 3.75 µM ([2]; Well no.=4977): 101%

Structure (SMILES): CC(=O)N[C@@H](C(=O)O)C(C)(C)SN=O [S-Nitroso-N-acetylpenicillamine]
- remaining activity at 1.25 µM ([1]; Well no.=1045): 99.8%
- remaining activity at 3.75 µM ([2]; Well no.=1045): 98.3%

Structure (SMILES): COc1ccccc1N1CCN(CC(O)COc2cccc3ccccc23)CC1 (stereo not drawn) [Naftopidil]
- remaining activity at 1.25 µM ([1]; Well no.=7523): 101%
- remaining activity at 3.75 µM ([2]; Well no.=7523): 97.2%

Structure (SMILES): CC1(C)S[C@@H]2[C@H](NC(=O)[C@H](N)c3ccccc3)C(=O)N2[C@H]1C(=O)O [Ampicillin (sodium)]
- remaining activity at 1.25 µM ([1]; Well no.=8708): 101%
- remaining activity at 3.75 µM ([2]; Well no.=8708): 101%

Structure (SMILES): COc1ccc(S(=O)(=O)Nc2ccccc2CN(C)C/C=C/c2ccc(Cl)cc2)cc1 [KN-92]
- remaining activity at 1.25 µM ([1]; Well no.=2483): 96.3%
- remaining activity at 3.75 µM ([2]; Well no.=2483): 94.2%

Structure (SMILES): N#C/C(=C\c1c[nH]c2ccccc12)C(=O)c1ccc(O)c(O)c1 [Tyrphostin AG 808]
- remaining activity at 1.25 µM ([1]; Well no.=1433): 98.9%
- remaining activity at 3.75 µM ([2]; Well no.=1433): 97.2%

Structure (SMILES): NCCCC[C@H](NC(=O)[C@@H]1CCCN1C(=O)[C@@H]1CSSC[C@H](NC(=O)CNC(=O)CNC(=O)CN)C(=O)N[C@@H](Cc2ccc(O)cc2)C(=O)N[C@@H](Cc2ccccc2)C(=O)N[C@@H](CCC(N)=O)C(=O)N[C@@H](CC(N)=O)C(=O)N1)C(=O)NCC(N)=O [Terlipressin] (H-GGGCYFQNCPKG-NH2; disulfide 4-9)
- remaining activity at 1.25 µM ([1]; Well no.=8103): 106%
- remaining activity at 3.75 µM ([2]; Well no.=8103): 104%

Structure (SMILES): O=C(Nc1ccccc1C(=O)Nc1ccc(CCO)cc1)c1ccc([N+](=O)[O-])cc1 [KS-176]
- remaining activity at 1.25 µM ([1]; Well no.=5911): 101%
- remaining activity at 3.75 µM ([2]; Well no.=5911): 102%

Structure (SMILES): Cc1c[nH]c(/C=C2\C(=O)Nc3ccccc32)c1CCC(=O)O [SU-5402]
- remaining activity at 1.25 µM ([1]; Well no.=3037): 96.3%
- remaining activity at 3.75 µM ([2]; Well no.=3037): 95.9%

Structure (SMILES): O[C@H]1[C@H](O)[C@@H](O)[C@H](O)[C@@H](O)[C@H]1O [i-Inositol]
- remaining activity at 1.25 µM ([1]; Well no.=6495): 98.4%
- remaining activity at 3.75 µM ([2]; Well no.=6495): 101%

Structure (SMILES): CCCc1nc(C(C)(C)O)c(C(=O)O)n1Cc1ccc(-c2ccccc2-c2nnn[nH]2)cc1 [Olmesartan]
- remaining activity at 1.25 µM ([1]; Well no.=1794): 94.8%
- remaining activity at 1.25 µM ([1]; Well no.=7669): 100%
- remaining activity at 3.75 µM ([2]; Well no.=1794): 95.4%
- remaining activity at 3.75 µM ([2]; Well no.=7669): 99%

Structure (SMILES): CN/C(=N\CCSCc1nc[nH]c1C)NC#N [Cimetidine]
- remaining activity at 1.25 µM ([1]; Well no.=272): 88%
- remaining activity at 1.25 µM ([1]; Well no.=1875): 96.3%
- remaining activity at 1.25 µM ([1]; Well no.=7328): 94.5%
- remaining activity at 3.75 µM ([2]; Well no.=272): 93.4%
- remaining activity at 3.75 µM ([2]; Well no.=1875): 99.3%
- remaining activity at 3.75 µM ([2]; Well no.=7328): 97.6%

Structure (SMILES): CCCCc1ccc(NC(C)=O)c(C)c1 [SMIP004]
- remaining activity at 1.25 µM ([1]; Well no.=6972): 101%
- remaining activity at 3.75 µM ([2]; Well no.=6972): 98.7%

Structure (SMILES): CC1=C(/C=C/C(C)=C/C=C/C(C)=C/C(=O)Nc2ccc(O)cc2)C(C)(C)CCC1 [Retinoic acid p-hydroxyanilide]
- remaining activity at 1.25 µM ([1]; Well no.=708): 97.5%
- remaining activity at 3.75 µM ([2]; Well no.=708): 94.4%

Structure (SMILES): CC(=O)N[C@@H](CS)C(=O)O [N-Acetyl-Cysteine]
- remaining activity at 1.25 µM ([1]; Well no.=4036): 97.8%
- remaining activity at 3.75 µM ([2]; Well no.=4036): 96.7%

Structure (SMILES): CC(=O)[C@@]1(O)CC[C@H]2[C@@H]3CCC4=CC(=O)CCC4=C3[C@@H](c3ccc(N(C)C)cc3)C[C@@]21C [Ulipristal]
- remaining activity at 1.25 µM ([1]; Well no.=4929): 105%
- remaining activity at 3.75 µM ([2]; Well no.=4929): 104%
